In the oligonucleotide strings, read from the 5' end, every base follows the letter of its sugar. An asterisk marks phosphorothioate; unmarked linkages are phosphodiester. Other units and linkages are bracketed, terminal groups are in braces. A string of capitals states the bases alone. [Ab] = 3'-terminal abasic nucleotide; d = 2'-deoxy (DNA); m = 2'-O-methyl; r = 2'-OH (RNA); {P} = phosphate; f = 2'-fluoro
tested on: PCSK9 mRNA; assay: In vitro screening of modified dsRNAs targeted to PCSK9 (Table 2b; cell type not given); type: cell-based; conditions: 30 nM siRNA
Protocol: For transfection with siRNA, HuH7, HepG2, or HeLa cells were seeded at a density of 2.0×10^4 cells/well in 96-well plates and transfected directly. Transfection of siRNA (30 nM for single dose screen) was carried out with lipofectamine 2000 (Invitrogen GmbH, Karlsruhe, Germany, cat. No. 11668-019) as described by the manufacturer.
24 hours after transfection HuH7 and HepG2 cells were lysed and PCSK9 mRNA levels were quantified with the Quantigene Explore Kit (Genosprectra, Dumbarton Circle Fremont, USA, cat. No. QG-000-02) according to the protocol. PCSK9 mRNA levels were normalized to GAP-DH mRNA. For each siRNA eight individual datapoints were collected. siRNA duplexes unrelated to PCSK9 gene were used as control. The activity of a given PCSK9 specific siRNA duplex was expressed as percent PCSK9 mRNA concentration in treated cells relative to PCSK9 mRNA concentration in cells treated with the control siRNA duplex.
Tables 1b and 2b (and FIG. 6A) summarize the results and provide examples of in vitro screens in different cell lines at different doses. Silencing of PCSK9 transcript was expressed as percentage of remaining transcript at a given dose.

Substance	Remaining mRNA in % of controls at siRNA conc. of 30 nM [%]
AD-12058: modified dsRNA, SEQ ID NO:1351/1352 (chain 1 rGmCrCmUrGmGrAmGrUmUrUmArUmUrCmGrGmArA; chain 2 rUrUrCrCrGrArAmUrArArArCrUrCmCrArGrGrCdT*dT)	9
AD-12059: modified dsRNA, SEQ ID NO:1353/1354 (chain 1 rGmCrCmUrGmGrAmGrUmUrUmArUmUrCmGrGmArA; chain 2 mUrUmCrCrGrArAmUrArArArCrUmCmCrArGrGrCdT*dT)	23
AD-12060: modified dsRNA, SEQ ID NO:1355/1356 (chain 1 rGmCrCmUrGmGrAmGrUmUrUmArUmUrCmGrGmArA; chain 2 rUrUrCrCrGmAmArUrAmAmArCrUrCrCrAmGmGmC)	10
AD-12061: modified dsRNA, SEQ ID NO:1357/1358 (chain 1 GCCUGGNAGUUUAUUCGGAATT; chain 2 rUrUrCrCrGmAmArUrAmAmArCrUrCrCrAmGmGmCdT*dT; chain 1: chemistry not given here; sense strand contains an undefined nucleotide n)	7
AD-12062: modified dsRNA, SEQ ID NO:1359/1360 (chain 1 rGmCrCmUrGmGrAmGrUmUrUmArUmUrCmGrGmArAdTdT[Ab]; chain 2 rUrUrCrCrGmAmArUrAmAmArCrUrCrCrAmGmGmCdTdT[Ab])	10
AD-12063: modified dsRNA, SEQ ID NO:1361/1362 (chain 1 rGmCrCmUrGmGrAmGrUmUrUmArUmUrCmGrGmArA; chain 2 rUrUrCrCrGmAmArUrAmAmArCrUrCrCrAmGmGmC*mC*mU)	19
AD-12064: modified dsRNA, SEQ ID NO:1363/1364 (chain 1 GCCUGGNAGUUUAUUCGGAATT; chain 2 rUrUrCrCrGrArAmUrArArArCrUrCmCrArGrGrCdT*dT; chain 1: chemistry not given here; sense strand contains an undefined nucleotide n)	15
AD-12065: modified dsRNA, SEQ ID NO:1365/1366 (chain 1 rGmCrCmUrGmGrAmGrUmUrUmArUmUrCmGrGmArAdTdT[Ab]; chain 2 rUrUrCrCrGrArAmUrArArArCrUrCmCrArGrGrCdTdT[Ab])	16
AD-12066: modified dsRNA, SEQ ID NO:1367/1368 (chain 1 rGmCrCmUrGmGrAmGrUmUrUmArUmUrCmGrGmArA; chain 2 rUrUrCrCrGrArAmUrArArArCrUrCmCrArGrGrC*mC*mU)	20
AD-12067: modified dsRNA, SEQ ID NO:1369/1370 (chain 1 GCCUGGNAGUUUAUUCGGAATT; chain 2 rUrUrCrCrGrArArUrArArArCrUrCrCrArGrGrCdT*dT; chain 1: chemistry not given here)	17
AD-12068: modified dsRNA, SEQ ID NO:1371/1372 (chain 1 rGmCrCmUrGmGrAmGrUmUrUmArUmUrCmGrGmArAdTdT[Ab]; chain 2 rUrUrCrCrGrArArUrArArArCrUrCrCrArGrGrCdTdT[Ab])	18
AD-12069: modified dsRNA, SEQ ID NO:1373/1374 (chain 1 rGmCrCmUrGmGrAmGrUmUrUmArUmUrCmGrGmArA; chain 2 rUrUrCrCrGrArArUrArArArCrUrCrCrArGrGrC*mC*mU)	13
AD-12338: modified dsRNA, SEQ ID NO:1375/1376 (chain 1 fGmCfCmUfGmGfAmGfUmUfUmAfUmUfCmGfGmAfA; chain 2 {P}-mUfUmCfCmGfAmAfUmAfAmAfCmUfCmCfAmGfGmC)	15
AD-12339: modified dsRNA, SEQ ID NO:1377/1378 (chain 1 rGmCrCmUrGmGrAmGrUmUrUmArUmUrCmGrGmArA; chain 2 {P}-mUfUmCfCmGfAmAfUmAfAmAfCmUfCmCfAmGfGmC)	14
AD-12340: modified dsRNA, SEQ ID NO:1379/1380 (chain 1 rGmCmCmUrGrGrArGmUmUmUrAmUmUmCrGrGrArA; chain 2 {P}-mUfUmCfCmGfAmAfUmAfAmAfCmUfCmCfAmGfGmC)	19
AD-12341: modified dsRNA, SEQ ID NO:1381/1382 (chain 1 fGmCfCmUfGmGfAmGfUmUfUmAfUmUfCmGfGmAfAdT*dT; chain 2 {P}-mUfUmCfCmGfAmAfUmAfAmAfCmUfCmCfAmGfGmCdT*dT)	12
AD-12342: modified dsRNA, SEQ ID NO:1383/1384 (chain 1 fGmCfCmUfGmGfAmGfUmUfUmAfUmUfCmGfGmAfAdT*dT; chain 2 rUrUrCrCrGrArAmUrArArArCrUrCmCrArGrGrCdT*dT)	13
AD-12343: modified dsRNA, SEQ ID NO:1385/1386 (chain 1 fGmCfCmUfGmGfAmGfUmUfUmAfUmUfCmGfGmAfAdT*dT; chain 2 mUrUmCrCrGrArAmUrArArArCrUmCmCrArGrGrCdT*dT)	24
AD-12344: modified dsRNA, SEQ ID NO:1387/1388 (chain 1 fGmCfCmUfGmGfAmGfUmUfUmAfUmUfCmGfGmAfAdT*dT; chain 2 rUrUrCrCrGrArArUrArArArCrUrCrCrArGrGrCdT*dT)	9
AD-12345: modified dsRNA, SEQ ID NO:1389/1390 (chain 1 fGmCfCmUfGmGfAmGfUmUfUmAfUmUfCmGfGmAfAdT*dT; chain 2 rUrUrCrCrGrArArUrArArArCrUrCrCrArGrGrC*mC*mU)	12
AD-12346: modified dsRNA, SEQ ID NO:1391/1392 (chain 1 fGmCfCmUfGmGfAmGfUmUfUmAfUmUfCmGfGmAfAdT*dT; chain 2 rUrUrCrCrGmAmArUrAmAmArCrUrCrCrAmGmGmC*mC*mU)	13
AD-12347: modified dsRNA, SEQ ID NO:1393/1394 (chain 1 rGrCrCrUrGrGrArGrUrUrUrArUrUrCrGrGrArAdT*dT; chain 2 {P}-mUfUmCfCmGfAmAfUmAfAmAfCmUfCmCfAmGfGmCdT*dT)	11
AD-12348: modified dsRNA, SEQ ID NO:1395/1396 (chain 1 rGmCmCmUrGrGrArGmUmUmUrAmUmUmCrGrGrArAdT*dT; chain 2 {P}-mUfUmCfCmGfAmAfUmAfAmAfCmUfCmCfAmGfGmCdT*dT)	8
AD-12349: modified dsRNA, SEQ ID NO:1397/1398 (chain 1 GCCUGGNAGUUUAUUCGGAATT; chain 2 {P}-mUfUmCfCmGfAmAfUmAfAmAfCmUfCmCfAmGfGmCdT*dT; chain 1: chemistry not given here; further chemistry not fully specified)	11
AD-12350: modified dsRNA, SEQ ID NO:1399/1400 (chain 1 fGmCfCmUfGmGfAmGfUmUfUmAfUmUfCmGfGmAfAdTdT[Ab]; chain 2 {P}-mUfUmCfCmGfAmAfUmAfAmAfCmUfCmCfAmGfGmCdTdT[Ab])	17
